Assays:
[1] = system: Ba/F3 ETV6-NTRK3-G623R cells; experiment: Efficacy test in animals: subcutaneous xenograft, intragastric administration; type: in vivo, nude mice; conditions: for TGI (tumor growth inhibition rate): day of dissection; for Tumor inhibition rate (by tumor weight) / Tumor weight: end of the test
Protocol: (§1) Cells in the logarithmic growth phase were collected and resuspended in serum-free medium to a cell concentration of 2-4×10^7 cells/mL. An equal volume of matrigel was added to the cell suspension to achieve a final cell concentration of 1-2×10^7 cells/mL. 0.2 mL of tumor cell suspension was subcutaneously inoculated at the scapula of each nude mouse with the inoculation amount of 2-4×10^6 cells/mouse to prepare the animal models.

Ba/F3 ETV6-NTRK3 cells = experiment: as above; type: in vivo, nude mice; conditions: for TGI (tumor growth inhibition rate): day of dissection; for Tumor inhibition rate (by tumor weight) / Tumor weight: end of the test
Protocol: as §1

Ba/F3 SLC34A2-ROS1-WT = biological target: T1, Ba/F3 SLC34A2-ROS1-WT (Homo sapiens, UniProt P08922); experiment: Inhibitory activity against cell proliferation (CellTiter-Glo, 72 hours); type: cell-based; conditions: read-out: Half maximal inhibitory concentration IC50 of cells, Ba/F3 SLC34A2-ROS1-WT
T1 construct: fused on or other part: N-terminal part of SLC34A2 as fusion partner (part of the key); O95436 (Sodium-dependent phosphate transport protein 2B)
Protocol: (§2) Adenosine Triphosphate (ATP) is an energy carrier commonly used in various life activities in nature, and is the minimum unit for energy storage and transfer. The CellTiter-Glo™ cell viability assay kit uses luciferase as an assay agent, which requires the involvement of ATP in luminescence. The CellTiter-Glo™ reagent is added into cell culture medium to measure the luminescence value. The luminescence signal is directly proportional to the amount of ATP in the system, and the ATP is positively correlated with the number of viable cells. Therefore, the proliferation of cells can be detected by detecting the ATP content using the CellTiter-Glo kit.
(§3) a) Cells in the logarithmic growth phase were collected and counted using a […]. The cell viability was detected by the trypan blue exclusion method, and the cell viability was kept over 90%.
(§4) b) The cell concentration was adjusted; 90 μL of the cell suspension was added to a 96-well plate.
(§5) a) A 10-fold compound solution was prepared, with the highest concentration being 10 μM (a total of 9 concentrations, 3-fold dilution). 10 μL of compound solution was added to each well of a 96-well plate inoculated with cells, and three duplicate wells were set for each compound concentration.
(§6) a) The CTG reagent was thawed and the cell plate was equilibrated to room temperature for 30 minutes.
(§7) b) An equal volume of CTG solution was added to each well.
(§8) c) The plate was shaken on an orbital shaker for 5 minutes to lyse the cells.
(§9) d) The cell plate was placed at room temperature for 20 minutes to stabilize the luminescence signal.
(§10) e) The luminescence value was read.
(§11) The data were analyzed using GraphPad Prism 5.0 software, fitted with nonlinear S-curve regression to give dose-response curves, and IC50 values were calculated therefrom.

BaF3 ETV6-NTRK3-G623R = biological target: T2, BaF3 ETV6-NTRK3-G623R (Homo sapiens, UniProt Q16288, G623R, cells depend on it); experiment: as above; type: cell-based; conditions: read-out: Half maximal inhibitory concentration IC50 of cells, BaF3 ETV6-NTRK3-G623R
T2 construct: fused on or other part: N-terminal part of ETV6 (TEL) as fusion partner (part of the key); P41212 (Transcription factor ETV6)
Protocol: as §2, with “kit. In this test, the cell lines used are Ba/F3 LMNA-NTRK1-WT, Ba/F3 LMNA-NTRK1-F589L, BaF3 LMNA-NTRK1-G595R, BaF3 LMNA-NTRK1-G667A, BaF3 ETV6-NTRK3-WT, BaF3 ETV6-NTRK3-G623R, and Ba/F3 SLC34A2-ROS1-WT stable cell strains, 5000 cells/well.” for “kit.”
as §3, §4
c) Cells in the 96-well plate were incubated overnight at 37° C. with 5% CO2 and 95% humidity.
as §5
b) The cells in the 96-well plate added with compound were incubated for 72 hours at 37° C. with 5% CO2 and 95% humidity, followed by the CTG (CellTiter-Glo) analysis.
as §6, §7, §8, §9, §10, §11

[2] = Animal body weight and general observations, Ba/F3 ETV6-NTRK3-G623R tumor-bearing nude mice
Protocol: The mice in groups were intragastrically administrated on the next day, and the animal body weight and the long and short diameters of the tumor were measured once every other day.

T2 sequence (Q16288 whole entry G623R, the tested form may be a part): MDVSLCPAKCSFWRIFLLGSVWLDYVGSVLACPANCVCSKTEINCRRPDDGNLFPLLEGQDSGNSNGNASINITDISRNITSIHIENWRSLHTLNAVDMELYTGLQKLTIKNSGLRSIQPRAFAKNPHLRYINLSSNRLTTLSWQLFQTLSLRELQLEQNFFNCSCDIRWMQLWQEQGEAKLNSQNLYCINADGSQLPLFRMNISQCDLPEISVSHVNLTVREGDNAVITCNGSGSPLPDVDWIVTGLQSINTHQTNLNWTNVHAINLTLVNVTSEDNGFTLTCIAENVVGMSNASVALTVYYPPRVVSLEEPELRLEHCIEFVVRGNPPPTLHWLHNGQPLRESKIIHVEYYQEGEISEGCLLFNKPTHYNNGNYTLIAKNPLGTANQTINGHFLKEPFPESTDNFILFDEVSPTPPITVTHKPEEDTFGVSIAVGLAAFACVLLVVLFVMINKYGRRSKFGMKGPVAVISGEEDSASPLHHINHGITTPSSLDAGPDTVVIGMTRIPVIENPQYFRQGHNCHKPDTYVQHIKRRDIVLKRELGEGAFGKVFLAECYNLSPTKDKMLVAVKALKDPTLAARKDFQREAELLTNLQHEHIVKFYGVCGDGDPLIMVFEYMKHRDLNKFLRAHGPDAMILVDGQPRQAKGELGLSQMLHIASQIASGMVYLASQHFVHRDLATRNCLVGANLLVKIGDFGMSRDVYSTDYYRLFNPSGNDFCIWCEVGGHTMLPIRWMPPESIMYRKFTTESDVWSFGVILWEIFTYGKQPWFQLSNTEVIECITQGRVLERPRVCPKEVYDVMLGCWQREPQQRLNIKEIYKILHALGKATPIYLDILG
T1 sequence (P08922 whole entry, stated change not applied, the tested form may be a part): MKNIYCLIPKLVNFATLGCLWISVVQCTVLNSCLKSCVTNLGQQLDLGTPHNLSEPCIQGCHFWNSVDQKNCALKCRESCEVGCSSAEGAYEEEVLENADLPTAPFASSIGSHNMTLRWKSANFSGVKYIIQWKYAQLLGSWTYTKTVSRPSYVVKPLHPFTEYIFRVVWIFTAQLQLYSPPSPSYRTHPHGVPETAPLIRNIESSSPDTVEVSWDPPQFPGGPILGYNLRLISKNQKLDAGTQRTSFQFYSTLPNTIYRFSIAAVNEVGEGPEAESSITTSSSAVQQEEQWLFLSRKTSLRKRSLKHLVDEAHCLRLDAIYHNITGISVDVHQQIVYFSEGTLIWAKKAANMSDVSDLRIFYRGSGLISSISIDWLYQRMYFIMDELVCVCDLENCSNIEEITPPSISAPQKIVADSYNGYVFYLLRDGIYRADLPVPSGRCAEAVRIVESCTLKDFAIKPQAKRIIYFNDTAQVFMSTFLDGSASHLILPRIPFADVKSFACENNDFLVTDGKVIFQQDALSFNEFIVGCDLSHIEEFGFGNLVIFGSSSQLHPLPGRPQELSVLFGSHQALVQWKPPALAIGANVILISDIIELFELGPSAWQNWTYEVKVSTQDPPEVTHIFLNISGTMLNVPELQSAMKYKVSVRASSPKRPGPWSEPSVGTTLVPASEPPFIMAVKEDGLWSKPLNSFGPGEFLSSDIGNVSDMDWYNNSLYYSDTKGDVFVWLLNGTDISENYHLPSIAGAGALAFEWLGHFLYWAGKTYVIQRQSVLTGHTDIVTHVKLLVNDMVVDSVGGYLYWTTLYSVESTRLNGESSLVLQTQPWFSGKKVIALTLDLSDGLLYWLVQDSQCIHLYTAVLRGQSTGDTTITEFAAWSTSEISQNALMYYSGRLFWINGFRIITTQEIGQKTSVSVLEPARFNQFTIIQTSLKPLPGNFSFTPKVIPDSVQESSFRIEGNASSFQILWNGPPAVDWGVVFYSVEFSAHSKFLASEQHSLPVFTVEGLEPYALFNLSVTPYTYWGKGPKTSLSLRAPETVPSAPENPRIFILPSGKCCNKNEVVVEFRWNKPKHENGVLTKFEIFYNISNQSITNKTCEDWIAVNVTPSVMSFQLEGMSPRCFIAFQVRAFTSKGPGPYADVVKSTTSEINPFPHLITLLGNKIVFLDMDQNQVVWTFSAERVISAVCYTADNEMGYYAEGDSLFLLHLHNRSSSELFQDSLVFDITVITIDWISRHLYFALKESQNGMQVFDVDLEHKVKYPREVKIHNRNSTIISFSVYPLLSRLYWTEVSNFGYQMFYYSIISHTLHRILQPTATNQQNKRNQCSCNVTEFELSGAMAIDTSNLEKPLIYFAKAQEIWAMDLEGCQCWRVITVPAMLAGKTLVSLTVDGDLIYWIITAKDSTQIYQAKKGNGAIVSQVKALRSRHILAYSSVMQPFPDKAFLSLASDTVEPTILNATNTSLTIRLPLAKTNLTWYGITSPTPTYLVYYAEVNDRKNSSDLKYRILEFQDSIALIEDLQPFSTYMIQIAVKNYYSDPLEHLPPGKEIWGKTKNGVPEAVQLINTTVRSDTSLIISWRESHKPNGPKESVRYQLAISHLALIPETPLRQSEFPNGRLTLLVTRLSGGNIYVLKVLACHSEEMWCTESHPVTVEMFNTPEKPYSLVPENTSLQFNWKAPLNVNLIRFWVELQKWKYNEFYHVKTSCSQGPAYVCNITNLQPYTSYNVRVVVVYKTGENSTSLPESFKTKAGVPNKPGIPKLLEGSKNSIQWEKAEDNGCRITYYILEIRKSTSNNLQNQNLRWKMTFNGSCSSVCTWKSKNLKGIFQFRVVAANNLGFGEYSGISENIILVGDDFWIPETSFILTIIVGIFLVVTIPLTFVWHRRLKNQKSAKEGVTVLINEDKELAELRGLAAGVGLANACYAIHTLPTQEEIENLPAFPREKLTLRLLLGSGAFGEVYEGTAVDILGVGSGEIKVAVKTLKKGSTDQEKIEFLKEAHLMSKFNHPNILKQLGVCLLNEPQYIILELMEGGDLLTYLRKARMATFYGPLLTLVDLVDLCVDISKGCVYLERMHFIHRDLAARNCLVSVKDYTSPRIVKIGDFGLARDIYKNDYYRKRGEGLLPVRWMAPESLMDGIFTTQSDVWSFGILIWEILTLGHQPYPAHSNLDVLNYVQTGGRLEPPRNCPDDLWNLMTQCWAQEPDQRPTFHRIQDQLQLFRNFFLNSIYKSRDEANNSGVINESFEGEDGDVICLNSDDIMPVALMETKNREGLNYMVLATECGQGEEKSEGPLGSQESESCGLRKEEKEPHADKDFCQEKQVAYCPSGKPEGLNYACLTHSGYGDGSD

SMILES: O=C(Nc1cnn2ccc(N3CCC[C@@H]3c3cc(F)ccc3F)nc12)N1CC[C@H](O)C1 [LOXO-101, larotrectinib, reference compound]
- Tumor volume ([1]; Day 0, 60 mg/kg qd): 200.39 ± 31.65 mm^3
- Tumor volume ([1]; Day 3, 60 mg/kg qd): 552.34 ± 219.25 mm^3
- Tumor volume ([1]; Day 5, 60 mg/kg qd): 1025.59 ± 347.93 mm^3
- Tumor volume ([1]; Day 7, 60 mg/kg qd): 1349.08 ± 541.06 mm^3
- Tumor volume ([1]; Day 9, 60 mg/kg qd): 1822.21 ± 755.31 mm^3
- Tumor volume ([1]; Day 11, 60 mg/kg qd): 2375.84 ± 852.18 mm^3
- TGI (tumor growth inhibition rate) ([1]; 60 mg/kg qd): 31.65%
- Tumor inhibition rate (by tumor weight) ([1]; 60 mg/kg qd): 25.27%
- Tumor weight ([1]; 60 mg/kg qd): 1.28 ± 0.62 g
- Tumor volume (Ba/F3 ETV6-NTRK3 cells; Day 0, 60 mg/kg qd): 303.89 ± 50.02 mm^3
- Tumor volume (Ba/F3 ETV6-NTRK3 cells; Day 3, 60 mg/kg qd): 510.07 ± 224.94 mm^3
- Tumor volume (Ba/F3 ETV6-NTRK3 cells; Day 5, 60 mg/kg qd): 490.32 ± 170.06 mm^3
- Tumor volume (Ba/F3 ETV6-NTRK3 cells; Day 7, 60 mg/kg qd): 731.42 ± 372.59 mm^3
- Tumor volume (Ba/F3 ETV6-NTRK3 cells; Day 9, 60 mg/kg qd): 1289.62 ± 757.75 mm^3
- Tumor volume (Ba/F3 ETV6-NTRK3 cells; Day 11, 60 mg/kg qd): 1361.88 ± 710.90 mm^3
- TGI (tumor growth inhibition rate) (Ba/F3 ETV6-NTRK3 cells; 60 mg/kg qd): 63.87%
- Tumor inhibition rate (by tumor weight) (Ba/F3 ETV6-NTRK3 cells; 60 mg/kg qd): 63.49%
- Tumor weight (Ba/F3 ETV6-NTRK3 cells; 60 mg/kg qd): 0.64 ± 0.44 g
- GI50 (Ba/F3 SLC34A2-ROS1-WT): > 1000 nM
- GI50 (BaF3 ETV6-NTRK3-G623R): 394 nM
- Rate of change in body weight (%) of day 11 to day 0 ([2]; 60 mg/kg qd): 6.8%
- Body weight ([2]; Day 0, 60 mg/kg qd): 23.9 ± 1.4 g
- Body weight ([2]; Day 3, 60 mg/kg qd): 24.2 ± 1.8 g
- Body weight ([2]; Day 5, 60 mg/kg qd): 24.1 ± 2.0 g
- Body weight ([2]; Day 7, 60 mg/kg qd): 25.0 ± 2.2 g
- Body weight ([2]; Day 9, 60 mg/kg qd): 25.3 ± 2.2 g
- Body weight ([2]; Day 11, 60 mg/kg qd): 25.6 ± 2.4 g

SMILES: C[C@@H]1CCc2ncc(F)cc2[C@H]2CCCN2c2ccn3ncc(c3n2)C(=O)N1 [LOXO-195, reference compound]
- Tumor volume ([1]; Day 0, 100 mg/kg bid): 200.27 ± 30.38 mm^3
- Tumor volume ([1]; Day 3, 100 mg/kg bid): 282.91 ± 82.61 mm^3
- Tumor volume ([1]; Day 5, 100 mg/kg bid): 306.00 ± 115.66 mm^3
- Tumor volume ([1]; Day 7, 100 mg/kg bid): 364.50 ± 212.47 mm^3
- Tumor volume ([1]; Day 9, 100 mg/kg bid): 334.53 ± 184.22 mm^3
- Tumor volume ([1]; Day 11, 100 mg/kg bid): 345.18 ± 306.01 mm^3
- TGI (tumor growth inhibition rate) ([1]; 100 mg/kg bid): 90.07%
- Tumor inhibition rate (by tumor weight) ([1]; 100 mg/kg bid): 91.50%
- Tumor weight ([1]; 100 mg/kg bid): 0.15 ± 0.14 g
- Tumor volume (Ba/F3 ETV6-NTRK3 cells; Day 0, 100 mg/kg bid): 303.85 ± 42.83 mm^3
- Tumor volume (Ba/F3 ETV6-NTRK3 cells; Day 3, 100 mg/kg bid): 351.06 ± 144.65 mm^3
- Tumor volume (Ba/F3 ETV6-NTRK3 cells; Day 5, 100 mg/kg bid): 216.92 ± 62.19 mm^3
- Tumor volume (Ba/F3 ETV6-NTRK3 cells; Day 7, 100 mg/kg bid): 174.13 ± 102.49 mm^3
- Tumor volume (Ba/F3 ETV6-NTRK3 cells; Day 9, 100 mg/kg bid): 206.69 ± 107.53 mm^3
- Tumor volume (Ba/F3 ETV6-NTRK3 cells; Day 11, 100 mg/kg bid): 196.07 ± 88.87 mm^3
- TGI (tumor growth inhibition rate) (Ba/F3 ETV6-NTRK3 cells; 100 mg/kg bid): 94.80%
- Tumor inhibition rate (by tumor weight) (Ba/F3 ETV6-NTRK3 cells; 100 mg/kg bid): 94.86%
- Tumor weight (Ba/F3 ETV6-NTRK3 cells; 100 mg/kg bid): 0.09 ± 0.07 g
- GI50 (Ba/F3 SLC34A2-ROS1-WT): 36.7 nM
- GI50 (BaF3 ETV6-NTRK3-G623R): 2.7 nM
- Rate of change in body weight (%) of day 11 to day 0 ([2]; 100 mg/kg bid): 2.1%
- General observations ([2]; 100 mg/kg bid, the 1# animal, possibly associated with the administration operation): developed thorax congestion at D8 and died at D10
- Body weight ([2]; Day 0, 100 mg/kg bid): 23.5 ± 1.2 g
- Body weight ([2]; Day 3, 100 mg/kg bid): 24.4 ± 1.1 g
- Body weight ([2]; Day 5, 100 mg/kg bid): 24.4 ± 0.9 g
- Body weight ([2]; Day 7, 100 mg/kg bid): 24.6 ± 0.9 g
- Body weight ([2]; Day 9, 100 mg/kg bid): 24.4 ± 1.2 g
- Body weight ([2]; Day 11, 100 mg/kg bid): 24.0 ± 1.7 g

Reference: patent publication US20210403485A1, “PYRAZOLOPYRIMIDINE DERIVATIVE AS SELECTIVE TRK INHIBITOR” (SHANDONG LUYE PHARMACEUTICAL CO., LTD., priority 2018, published 2021)
